In EP4813403A1, “USE OF GLP-1R/GIPR DOUBLE-TARGET AGONIST IN PREPARING ANIMAL DRUG” (Hangzhou Zhongmeihuadong Pharmaceutical Co., Ltd., priority 2023, dated 2025):

Legend:
cat GIPR = test: Agonistic activity on GIPR of different species (LANCE Ultra cAMP assay): cat; format: cell-based; details: ratio of EC50 value of other species to human EC50 value
Protocol: CHO-K1 cells were seeded in a 6-well plate at 0.6×10^6 cells/well and incubated overnight in an incubator at a temperature of 37 °C and a carbon dioxide concentration of 5%. The next day, CHO-K1 cell media were replaced. Then two tubes A and B were prepared for each plasmid. 100 µL Opti-MEM was added to tube A, then 4 µL Lipofectamine™ 3000 was added and mixed uniformly. 100 µL Opti-MEM was firstly added to tube B, then 2 µg of one of the plasmids (human GLP-1R-pcDNA5 (+) plasmid, cat GLP-1R-pcDNA5 (+) plasmid, human GIPR-pcDNA5 (+) plasmid, cat GIPR-pcDNA5 (+) plasmid) was added and mixed uniformly, and 4 µL P3000™ was added to tube B and mixed uniformly (the ratio of plasmid to transfection reagent was 1 µg: 2 µL). The diluted solution in tube A was added to the diluted solution in tube B, mixed evenly, and incubated at room temperature for 15 minutes. […]
18-20 hours after transfection, human GLP-1R-CHO, cat GLP-1R-CHO, human GIPR-CHO, cat GIPR-CHO cells were resuspended in 1×Casein Stimulation Buffer (HBSS, 5 mM HEPES, 0.5 mM IBMX, 0.1% casein, pH7.4), and seeded into a 384-well cell culture plate at 9 µL/well (cell numbers being 2000, 2000, 1000, 2000 cells/well, respectively). […] The readings at 665 nm and 620 nm were determined with a 330 nm excitation light on a microplate reader. The 665 nm/620 nm reading ratio was calculated. […]

monkey GLP-1R = test: Agonistic activity on GLP-1R of different species (LANCE Ultra cAMP assay): monkey; format: cell-based; details: ratio of EC50 value of other species to human EC50 value
Protocol: The in vitro agonistic activity of the compound of the present invention on GLP-1R was measured in cells stably expressing human, dog, mouse, rat, rabbit, and monkey GLP-1R (human GLP-1R-HEK, dog GLP-1R-HEK, mouse GLP-1R-HEK, rat GLP-1R- in HEK, rabbit GLP-1R-CHO, monkey GLP-1R-HEK cells). Human GLP-1R-HEK, dog GLP-1R-HEK, mouse GLP-1R-HEK, rat GLP-1R-HEK, rabbit GLP-1R-CHO, and monkey GLP-1R-HEK cells were resuspended in 1×Casein Stimulation Buffer (HBSS, 5 mM HEPES, 0.5 mM IBMX, 0.1% casein, pH7.4), and seeded into a 384-well cell culture plate at 9 µL/well (cell numbers being 1000, 1000, 1000, 1500, 1000, 1000 cells/well, respectively). 1 µL of 1×Casein Stimulation Buffer containing 10× compound was added to the above-mentioned 384-well cell culture plate. The plate was incubated at 37 °C for 30 minutes. After the incubation was completed, 5 µL of Eu-cAMP working solution and 5 µL of Ulight^TM-cAMP working solution were added sequentially, centrifuged and then incubated at room temperature for 1 hour. The readings at 665 nm and 620 nm were determined with a 330 nm excitation light on a microplate reader. The 665 nm/620 nm reading ratio was calculated. […] GraphPad was used to perform nonlinear regression according to the response percentage and the concentration of the compound added to obtain the EC50 value for each compound.

obese dogs = test: Weight loss efficacy in obese dogs; format: in vivo; details: for SFV, change rate in abdominal fat indicators / TFV, change rate in abdominal fat indicators / VFV, change rate in abdominal fat indicators / rSFV, change rate in abdominal fat indicators / rVFV, change rate in abdominal fat indicators: Mean±SEM
Protocol: In this study, the compound of the present invention was administered subcutaneously to obese dogs multiple times to detect changes in their body weights and elucidate the weight loss effect of the compound. Obese dogs aged 8 months or older with a body condition score (BCS) ≥6 were used in this study. The dogs were housed in appropriately sized cages under controlled environmental conditions with a room temperature of 20-26°C and a relative humidity of 40%-70%, and had free access to food and water. Experimental dogs with similar body weights and BCSs (body weight: 15~24 kg, BCS: 6~9) were randomly divided into four groups (n=6 per group): G1, G2, G3, and G4. Group G1 served as the vehicle control group. […] For Group G2 obese dogs, the first dose (4 nmol/kg) was administered on Day 1 (D1) and Day 8 (D8), adjusted to the second dose (6 nmol/kg) on Day 15 (D15), and further adjusted to the third dose ([…]) on Day 22 (D22), which third dose (96 nmol/kg) was maintained for the subsequent administrations on Day 29 (D29) and Day 36 (D36). For Group G3 obese dogs, the first dose (12 nmol/kg) was administered on D1 and D8, adjusted to the second dose (19 nmol/kg) on D15, and further adjusted to the third dose ([…]) on D22, which third dose (385 nmol/kg) was also maintained for the subsequent administrations on D29 and D36. For Group G4 dogs, the positive control Dirlotapide was administered orally at a dose of 0.5 mg/kg once per day (QD) for 42 consecutive days.
After administration, the body weights of dogs in Group G4 receiving Dirlotapide were measured at a fixed time once daily, while the body weights of dogs in the other groups (G1, G2, and G3) were measured at a fixed time once every 7 days. Food intake was measured once per day after administration. Blood tests for routine and biochemical parameters were conducted before grouping and on D43. Imaging examinations of abdominal fat volume were performed before grouping and from D43 to D45 to measure total abdominal fat volume (TFV) and visceral abdominal fat volume (VFV), and to calculate subcutaneous abdominal fat (SFV). Body condition score (BCS), body mass index (BMI), and abdominal circumference (AC) were measured once a week. The data were statistically analyzed using ANOVA. If ANOVA was statistically significant (p < 0.05) and variances were homogeneous, Tukey's test was used for intergroup comparison. If variances were heterogeneous, Dunnet's T3 test was used. Results were expressed as mean ± standard error of the mean (Mean ± SEM). The significance level was set at 0.05, and both statistical and biological significance were considered in the analysis.

[1] = D43, 4/6/96 nmol/kg s.c. QW, six administrations
[2] = D43, 12/19/385 nmol/kg s.c. QW, six administrations

`CC[C@H](C)[C@H](NC(=O)C(C)(C)NC(=O)[C@H](Cc1ccc(O)cc1)NC(=O)[C@H](CC(=O)O)NC(=O)[C@H](CO)NC(=O)[C@@H](NC(=O)C(C)(Cc1ccccc1)NC(=O)[C@@H](NC(=O)CNC(=O)[C@H](CCC(=O)O)NC(=O)C(C)(C)NC(=O)[C@@H](N)Cc1ccc(O)cc1)[C@@H](C)O)[C@@H](C)O)C(=O)NC(C)(C)C(=O)N[C@@H](CC(C)C)C(=O)N[C@@H](CC(=O)O)C(=O)N[C@@H](CCCCN)C(=O)N[C@@H](CCC(N)=O)C(=O)N[C@@H](C)C(=O)N[C@@H](CCC(N)=O)C(=O)N[C@@H](C)C(=O)N[C@@H](CCC(=O)O)C(=O)N[C@@H](Cc1ccccc1)C(=O)N[C@H](C(=O)N[C@@H](CCCCNC(=O)COCCOCCNC(=O)COCCOCCNC(=O)COCCOCCNC(=O)CC[C@H](NC(=O)CCCCCCCCCCCCCCCCCCCCC(=O)O)C(=O)O)C(=O)N[C@@H](Cc1c[nH]c2ccccc12)C(=O)N[C@@H](CC(C)C)C(=O)N[C@@H](CC(C)C)C(=O)N[C@@H](CCCCN)C(=O)NCC(=O)NCC(=O)N1CCC[C@H]1C(=O)N[C@@H](CO)C(=O)N[C@@H](CO)C(=O)NCC(=O)N[C@@H](C)C(=O)N1CCC[C@H]1C(=O)N1CCC[C@H]1C(=O)N1CCC[C@H]1C(=O)N[C@@H](CO)C(=O)N[C@@H](CCCCN)C(N)=O)C(C)C` (stereo partly drawn) [Compound P016] was tested, and the “GIPR EC50 ratio” value (cat GIPR) was 3.59, the “GLP-1R EC50 ratio” value (monkey GLP-1R) was 2.66 and the “SFV, change rate in abdominal fat indicators” value (obese dogs; [1]) was -18.11±4.49. The “TFV, change rate in abdominal fat indicators” value (obese dogs; [1]) was -16.16±5.88, the “VFV, change rate in abdominal fat indicators” value (obese dogs; [1]) was -10.81±10.19 and the “rSFV, change rate in abdominal fat indicators” value (obese dogs; [1]) was 4.80±6.52. For the same molecule, the “rVFV, change rate in abdominal fat indicators” value (obese dogs; [1]) was -1.51±3.56, the “SFV, change rate in abdominal fat indicators” value (obese dogs; [2]) was -15.14±4.56 and the “TFV, change rate in abdominal fat indicators” value (obese dogs; [2]) was -13.00±4.47. The “VFV, change rate in abdominal fat indicators” value (obese dogs; [2]) was -9.42±5.39, the “rSFV, change rate in abdominal fat indicators” value (obese dogs; [2]) was 4.19±4.19 and the “rVFV, change rate in abdominal fat indicators” value (obese dogs; [2]) was -2.41±2.12. For the same molecule, the “effective dose for weight loss” value (obese dogs; s.c. QW escalating doses) was 96 nmol/kg, the “effective dose for weight loss” value (obese dogs; s.c. QW escalating doses, equivalent of the nmol/kg dose) was 0.5 mg/kg and the maximum weight loss (obese dogs; s.c. QW escalating doses, six administrations) was 9.51%.
